The subject of data set [1] is rCal/09 HA. Kind of data set: Cross-reactive serum IgG to Cal/09 HA after rPR/8 HA immunization. The format is in vivo, BALB/c mice. The following applies: for heteroreactive serum IgG titers versus unadjuvanted protein alone: 5 μg rPR/8 HA, rCal/09 HA substrate, 3 weeks.
In data set [2] the test system is rHA derived from A/California/04/2009 (pH1N1). The data set can be described thus: rHA (Cal/09) immunization: serum IgG ELISA. The format is in vivo, BALB/c mice. The note with it: 5 μg Cal/09 rHA, 3 weeks after immunization. For orientation: ELISA stands for enzyme-linked immunosorbent assay.
Data set [3] has as its system OVA. Kind of data set: OVA immunization: anti-OVA IgG1 and IgG2c by ELISA. The class given is in vivo, C57BL/6 mice. The note with it: i.m. OVA 20 μg plus adjuvant, sera day 35.
The nature of data set [4]: Histological examination for reactogenicity (H&E, injected muscle). The format is in vivo, BALB/c mice. The following applies: for inflammation at the site of injection and systemically in comparison to AddaVax: 24 h after i.m. injection; for cellular infiltration in injected muscle (H&E): i.m. without antigen, 24 h after injection. An excerpt:
Scale bars, 100 μm. […] The error bars indicate SEM.
Twenty-four hours after injection, muscle tissues at the injection sites and sera were harvested. The muscles were fixed in 10% buffered formalin and embedded in paraffin. Sections 5 μm thick were stained with hematoxylin and eosin (H&E) and examined under a microscope.

Data set [5] deals with Purified CD4+ or CD8+ T cells. The data set can be described thus: Purified CD4+ or CD8+ T cell proliferation. The class given is cell-based. The following applies: in the presence of CD3 ligation. The procedure:
Capability for induction of antigen specific CD8 T cells is one of the ideal features for adjuvants for cancer or herpes simplex virus infection. Thus, 1V270 and 1Z105 were examined to determine whether the agonists can directly induce T cell proliferation. Purified CD4+ or CD8+ T cells were incubated with 1Z105, 1V270 alone or in combination.

In data set [6] the test system is PBMC. The data set can be described thus: IL-8 release by human PBMC. The format is cell-based. The source says: To confirm the activities of 1Z105/1V270 combined adjuvant in human cells, PBMC were stimulated with these agonists.
Data set [7] deals with A/Brisbane/59/2007 (H1N1), A/Uruguay/716/2007 (H3N2), B/Brisbane/60/2008. The data set can be described thus: Fluzone immunization: serum IgG to the vaccine's viral components. The format is in vivo, BALB/c mice. The note with it: 50 ng/HA 2009-2010 Fluzone, 3 weeks.
Data set [8] deals with rHA derived from A/Vietnam/1203/2004 (VN/04). Also on record: species or system BALB/c mice. The following applies: mouse, in vivo.
Data set [9] has as its system OT-II splenocytes. Kind of data set: Intracellular IFNγ in CD4 T cells of OT-II splenocytes. The format is cell-based, mice. The note with it: for intracellular IFNγ expressing CD4 T cells: alone, OVA323-339, 3 days. The procedure:
To evaluate whether 1Z105 can enhance the proinflammatory cytokine induction by 1V270, BMDC (C57BL/6) were incubated with 1V270 (0.025, or 0.1 μM) in the presence or absence of 1Z105 (5 μM). […] Antigen presenting function was evaluated using splenocytes prepared from OVA MHC class II-restricted alpha beta T cell receptor (TCR) transgenic mice OT-II. Splenocytes were cultured with OVA peptide (OVA323-339) for 3 days with 1Z105, or 1V270 alone or in combination. The frequency of intracellular (IC) IFNγ expressing CD4 T cells was determined by flow cytometric assay. Treatment with 1V270 alone increased intracellular IFNγ (3.7 and 6.8% by 25 and 100 nM, respectively).

Data set [10] deals with PR/8 virus / PR/8 HA. The data set can be described thus: Long-term memory response after rPR/8 HA: HAI titers, B cell and IFN-γ ELISpot. The class given is in vivo, BALB/c mice. The procedure: (A) BALB/c mice were i.m. immunized with rPR/8 HA (5 μg/animal) on day 0 with the indicated adjuvant or vehicle, and sera were collected every 3 weeks (red drops). (B) Levels of antigen-specific total IgG were measured by ELISA. (C) The serum HAI titer to PR/8 virus was assayed at 6 weeks after immunization, with a detection limit of 1:40 serum dilution; nd, not detectable. (D and E) Eighteen weeks after immunization, mice (n=5/group) were administered 10 mLD50 of PR/8 virus and monitored for morbidity, as measured by body weight loss (D), and mortality (E) induced by the viral challenge. […]
AddaVax was used at a 1:1 ratio with antigen in PBS. […] IFN-γ spot-forming cells were detected with the IFN-γ ELISpot ALP kit (3321-2A; Mabtech, Cincinnati, Ohio). Antigen specific B cells from splenocytes were quantified 5 days after reexposure to antigen (5 μg of rPR/8HAin PBS only administered i.m.) by plating them on ELISpot plates coated with rPR/8 protein (Strep tag purified) for 20 h, and detection of secreted antibody was performed with an anti-mouse IgG secondary antibody conjugated to horseradish peroxidase (HRP).
Anti-OVA antibodies of the IgG subclasses IgG1 and IgG2c were measured by ELISA. Each ELISA plate contained a titration of a previously quantitated serum to generate a standard curve. […] Total IgG, IgG1, and IgG2a were detected.

Consider `CCCCCCCCC=CCCCCCCCC(=O)OCC(COP(=O)(O)OCCNC(=O)c1ccc(Cn2c(=O)[nH]c3c(N)nc(OCCOC)nc32)cc1)OC(=O)CCCCCCCC=CCCCCCCCC` (stereo not shown) [Compound 1V270], for which, in [1], the “heteroreactive serum IgG titers versus unadjuvanted protein alone” value was “significantly higher”. Besides, the IgG seroresponse result in [2] is given as “enhanced”. Besides, in [3], the “serum anti-OVA IgG1 titers versus OVA alone” value is on record as “did not induce IgG1 comparably to 1Z105” and the “serum anti-OVA IgG2c titers versus OVA alone” value is recorded as “significantly higher IgG2c titers”. Also, in [4], the “inflammation at the site of injection and systemically in comparison to AddaVax” value is on record as “minimal inflammation”; the “cellular infiltration in injected muscle (H&E)” value is “minimal cellular infiltration”. Moreover, in data set [5], the “purified CD4+ or CD8+ T cell proliferation” value was “enhanced purified CD4+ or CD8+T cell proliferation”. The “IL-8 release by PBMC” value in [6] is “minimal levels of IL-8”. Also, the “seroresponse to the three viral components of Fluzone (ELISA)” value in [7] is recorded as “enhanced the seroresponse to all three viral components”. Further, in [8], the IgG seroresponse entry was “enhanced”. Moreover, in data set [9] (25 nM), the “intracellular IFNγ expressing CD4 T cells” value was determined as 3.7%. For the same compound, the “intracellular IFNγ expressing CD4 T cells” value in [9] (100 nM) is given as 6.8%. Besides, the “antigen-specific IFN-γ-producing T cells (ELISpot)” value in [10] (splenocytes 6 months after immunization, PR/8 HA peptide pool overnight) is “induced antigen-specific IFN-γ T cells that were long lived”.
In the case of `Cn1c2ccccc2c2nc(SCC(=O)NC3CCCCC3)n(-c3ccccc3)c(=O)c21` [Compound 1Z105], the “heteroreactive serum IgG titers versus unadjuvanted protein alone” value in [1] was “significantly higher”. In addition, the “subtypes of cross-reactive antibodies (IgG2a/IgG1)” value in [1] (antibodies cross-reactive to Cal/09 HA) is on record as “produced predominately IgG1”. Also, in data set [2], the IgG seroresponse result is reported as “enhanced”. For the same compound, the “serum anti-OVA IgG1 titers versus OVA alone” value in data set [3] is listed as “significantly higher”. Further, in data set [4], the “inflammation at the site of injection and systemically in comparison to AddaVax” value is “minimal inflammation”; the “cellular infiltration in injected muscle (H&E)” value is given as “minimal cellular infiltration”. Also, the “purified CD4+ or CD8+ T cell proliferation” value in [5] was “enhanced purified CD4+ or CD8+T cell proliferation”. Besides, the “IL-8 release by PBMC” value in data set [6] was “minimal levels of IL-8”. The “seroresponse to the three viral components of Fluzone (ELISA)” value in [7] is on record as “enhanced the seroresponse to all three viral components”. The IgG seroresponse entry in [8] is reported as “enhanced”. The “frequency of IFNγ-producing cells” value in data set [9] (1Z105 in combination with 1V270) is on record as “additively increased”. In addition, the “fold increase in HAI titer induced by the boost” value in data set [10] (5 days after reexposure versus preboost) is listed as “significant only in the 1Z105 group”.

The values above are taken from patent US20150366962A1 (priority 2014, published 2015).
